Measured values reported in patent US20240158446A1, “CYCLIC COMPOUND HAVING SELECTIVE INHIBITORY ACTION ON KRAS OVER HRAS AND NRAS” (CHUGAI SEIYAKU KABUSHIKI KAISHA, priority 2021, published 2024).

Key:
[1] = target: GDP-bound KRAS wild-type protein (Homo sapiens, UniProt P01116); test: Binding to KRAS by surface plasmon resonance (SPR), Single Cycle Kinetics; conditions: SPR, Single Cycle Kinetics, 1:1 binding model; GDP-bound KRAS wild-type protein; read-out: KRAS KD
[2] = target: GDP-bound NRAS wild-type protein (Homo sapiens, UniProt P01111); test: Binding to NRAS by surface plasmon resonance (SPR), Single Cycle Kinetics; conditions: SPR; GDP-bound NRAS wild-type protein vs GDP-bound KRAS wild-type protein; KD ratio class
Chain of GDP-bound NRAS wild-type protein (P01111 whole entry): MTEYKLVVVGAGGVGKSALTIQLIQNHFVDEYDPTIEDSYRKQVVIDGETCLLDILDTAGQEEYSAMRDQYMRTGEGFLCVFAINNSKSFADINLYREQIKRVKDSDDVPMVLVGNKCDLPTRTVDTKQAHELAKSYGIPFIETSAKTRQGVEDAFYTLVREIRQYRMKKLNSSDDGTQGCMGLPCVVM

[3] = target: GDP-bound HRAS wild-type protein (Homo sapiens, UniProt P01112); test: Binding to HRAS by surface plasmon resonance (SPR), Single Cycle Kinetics; conditions: SPR; GDP-bound HRAS wild-type protein vs GDP-bound KRAS wild-type protein; KD ratio class
Chain of GDP-bound HRAS wild-type protein (P01112 whole entry): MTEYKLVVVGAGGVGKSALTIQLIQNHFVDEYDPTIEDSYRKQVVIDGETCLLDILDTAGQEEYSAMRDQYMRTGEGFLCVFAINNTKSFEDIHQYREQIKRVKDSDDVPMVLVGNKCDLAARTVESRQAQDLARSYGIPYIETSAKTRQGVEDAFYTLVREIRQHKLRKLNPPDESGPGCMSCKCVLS

[4] = system: human lung cancer strain NCI-H441;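 note: cell proliferation inhibition after four days measured by CellTiter-Glo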

Chain of GDP-bound KRAS wild-type protein (P01116 whole entry): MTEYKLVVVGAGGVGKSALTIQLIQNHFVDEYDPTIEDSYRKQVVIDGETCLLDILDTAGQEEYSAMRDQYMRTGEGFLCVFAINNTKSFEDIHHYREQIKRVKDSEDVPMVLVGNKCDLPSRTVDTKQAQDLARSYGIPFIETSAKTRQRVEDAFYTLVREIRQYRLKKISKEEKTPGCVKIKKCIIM

SMILES	Kd [1] [nM]	NRAS/KRAS (ratio of KD value for NRAS to KD value for KRAS) [2]	HRAS/KRAS (ratio of KD value for HRAS to KD value for KRAS) [3]	IC50 [4] [nM]
CCO[C@@H]1C[C@H]2C(=O)NC3(CCC3)C(=O)N(C)[C@@H](C3CCCC3)C(=O)N(C)[C@H](C(=O)N3CCOCC3)CC(=O)N(C)[C@@H](CC3CCCCC3)C(=O)N[C@@H]([C@@H](C)CC)C(=O)N(C)CC(=O)N(C)[C@H]3C/C=C\CCN(C3=O)[C@@H](Cc3ccc(C)cc3)C(=O)N(C)CC(=O)N[C@@H](CCc3cc(F)c(C(F)(F)F)c(F)c3)C(=O)N2C1 [PP1420]	0.35	A (a compound having 10 or more and less than 20 is denoted as A)	A (a compound having 10 or more and less than 20 is denoted as A)	31.4
CCO[C@@H]1C[C@H]2C(=O)NC3(CCC3)C(=O)N(C)[C@@H](C3CCCC3)C(=O)N(C)[C@H](C(=O)N3CCOCC3)CC(=O)N(C)[C@@H](CC3CCC3)C(=O)N[C@@H]([C@@H](C)CC)C(=O)N(C)CC(=O)N(C)[C@H]3C/C=C\CCN(C3=O)[C@@H](Cc3ccc(C(F)(F)F)cc3)C(=O)N(C)CC(=O)N[C@@H](CCc3cc(F)c(C(F)(F)F)c(F)c3)C(=O)N2C1 [PP1422]	0.22	AA (a compound having 20 or more is denoted as AA)	A (a compound having 10 or more and less than 20 is denoted as A)	14.1
CCO[C@@H]1C[C@H]2C(=O)NC3(CCC3)C(=O)N(C)[C@@H](C3CCCC3)C(=O)N(C)[C@H](C(=O)N3CCCC3)CC(=O)N(C)[C@@H](CC3CCC3)C(=O)N[C@@H]([C@@H](C)CC)C(=O)N(C)CC(=O)N(C)[C@H]3C/C=C\CCN(C3=O)[C@@H](Cc3ccc(C(F)(F)F)cc3)C(=O)N(C)CC(=O)N[C@@H](CCc3cc(F)c(C(F)(F)F)c(F)c3)C(=O)N2C1 [PP1423]	0.14	AA (a compound having 20 or more is denoted as AA)	A (a compound having 10 or more and less than 20 is denoted as A)	4.4
CCO[C@@H]1C[C@H]2C(=O)NC3(CCC3)C(=O)N(C)[C@@H](C3CCCC3)C(=O)N(C)[C@H](C(=O)N3CCOCC3)CC(=O)N(C)[C@@H](CC3CCC3)C(=O)N[C@@H]([C@@H](C)CC)C(=O)N(C)CC(=O)N(C)[C@H]3C/C=C\CCN(C3=O)[C@@H](Cc3ccc(C)cc3)C(=O)N(C)CC(=O)N[C@@H](CCc3cc(F)c(C(F)(F)F)c(F)c3)C(=O)N2C1 [PP1424]	0.23	A (a compound having 10 or more and less than 20 is denoted as A)	A (a compound having 10 or more and less than 20 is denoted as A)	26.3
CCO[C@@H]1C[C@H]2C(=O)NC3(CCC3)C(=O)N(C)[C@@H](C3CCCC3)C(=O)N(C)[C@H](C(=O)N3CCCC3)CC(=O)N(C)[C@@H](CC3CCC3)C(=O)N[C@@H]([C@@H](C)CC)C(=O)N(C)CC(=O)N(C)[C@H]3C/C=C\CCN(C3=O)[C@@H](Cc3ccc(C)cc3)C(=O)N(C)CC(=O)N[C@@H](CCc3cc(F)c(C(F)(F)F)c(F)c3)C(=O)N2C1 [PP1425]	0.24	A (a compound having 10 or more and less than 20 is denoted as A)	B (a compound having 3 or more and less than 10 is denoted as B)	20.2
CCO[C@@H]1C[C@H]2C(=O)NC3(CCC3)C(=O)N(C)[C@@H](C3CCCC3)C(=O)N(C)[C@H](C(=O)N(C)C)CC(=O)N(C)[C@@H](CC3CC3)C(=O)N[C@@H]([C@@H](C)CC)C(=O)N(C)CC(=O)N(C)[C@H]3C/C=C\CCN(C3=O)[C@@H](Cc3ccc(F)cc3)C(=O)N(C)CC(=O)N[C@@H](CCc3ccc4sccc4c3)C(=O)N2C1 [PP1426]	1	A (a compound having 10 or more and less than 20 is denoted as A)	B (a compound having 3 or more and less than 10 is denoted as B)	475
CCO[C@@H]1C[C@H]2C(=O)NC3(CCC3)C(=O)N(C)[C@@H](C3CCCC3)C(=O)N(C)[C@H](C(=O)N(C)C)CC(=O)N(C)[C@@H](CC(C)C)C(=O)N[C@@H]([C@@H](C)CC)C(=O)N(C)CC(=O)N(C)[C@H]3C/C=C\CCN(C3=O)[C@@H](Cc3ccc(F)cc3)C(=O)N(C)CC(=O)N[C@@H](CCc3ccc4sccc4c3)C(=O)N2C1 [PP1427]	0.99	A (a compound having 10 or more and less than 20 is denoted as A)	B (a compound having 3 or more and less than 10 is denoted as B)	465
CCO[C@@H]1C[C@H]2C(=O)NC3(CCC3)C(=O)N(C)[C@@H](C(CC)CC)C(=O)N(C)[C@H](C(=O)N(C)C)CC(=O)N(C)[C@@H](CC3CC3)C(=O)N[C@@H]([C@@H](C)CC)C(=O)N(C)CC(=O)N(C)[C@H]3C/C=C\CCN(C3=O)[C@@H](CC3CCCCC3)C(=O)N(C)CC(=O)N[C@@H](CCc3cc(F)c(C(F)(F)F)c(F)c3)C(=O)N2C1 [PP1428]	0.87	AA (a compound having 20 or more is denoted as AA)	A (a compound having 10 or more and less than 20 is denoted as A)	38.8
CCO[C@@H]1C[C@H]2C(=O)NC3(CCC3)C(=O)N(C)[C@@H](C(CC)CC)C(=O)N(C)[C@H](C(=O)N(C)C)CC(=O)N(C)[C@@H](CC3CC3)C(=O)N[C@@H]([C@@H](C)CC)C(=O)N(C)CC(=O)N(C)[C@H]3C/C=C\CCN(C3=O)[C@@H](CC3CCC(F)(F)CC3)C(=O)N(C)CC(=O)N[C@@H](CCc3cc(F)c(C(F)(F)F)c(F)c3)C(=O)N2C1 [PP1429]	0.52	AA (a compound having 20 or more is denoted as AA)	A (a compound having 10 or more and less than 20 is denoted as A)	38.7
CCO[C@@H]1C[C@H]2C(=O)NC3(CCC3)C(=O)N(C)[C@@H](C(CC)CC)C(=O)N(C)[C@H](C(=O)N(C)C)CC(=O)N(C)[C@@H](CC3CCCC3)C(=O)N[C@@H]([C@@H](C)CC)C(=O)N(C)CC(=O)N(C)[C@H]3C/C=C\CCN(C3=O)[C@@H](CC3CCCCC3)C(=O)N(C)CC(=O)N[C@@H](CCc3cc(F)c(C(F)(F)F)c(F)c3)C(=O)N2C1 [PP1430]	0.85	A (a compound having 10 or more and less than 20 is denoted as A)	A (a compound having 10 or more and less than 20 is denoted as A)	70.4
CCO[C@@H]1C[C@H]2C(=O)NC3(CCC3)C(=O)N(C)[C@@H](C(CC)CC)C(=O)N(C)[C@H](C(=O)N(C)C)CC(=O)N(C)[C@@H](CC3CCCC3)C(=O)N[C@@H]([C@@H](C)CC)C(=O)N(C)CC(=O)N(C)[C@H]3C/C=C\CCN(C3=O)[C@@H](CC3CCC(F)(F)CC3)C(=O)N(C)CC(=O)N[C@@H](CCc3cc(F)c(C(F)(F)F)c(F)c3)C(=O)N2C1 [PP1431]	0.57	AA (a compound having 20 or more is denoted as AA)	A (a compound having 10 or more and less than 20 is denoted as A)	41.2
CCO[C@@H]1C[C@H]2C(=O)NC3(CCC3)C(=O)N(C)[C@@H](C(CC)CC)C(=O)N(C)[C@H](C(=O)N(C)C)CC(=O)N(C)[C@@H](CC(C)C)C(=O)N[C@@H]([C@@H](C)CC)C(=O)N(C)CC(=O)N(C)[C@H]3C/C=C\CCN(C3=O)[C@@H](CC3CCCCC3)C(=O)N(C)CC(=O)N[C@@H](CCc3cc(F)c(C(F)(F)F)c(F)c3)C(=O)N2C1 [PP1432]	0.61	AA (a compound having 20 or more is denoted as AA)	A (a compound having 10 or more and less than 20 is denoted as A)	51.3
CCO[C@@H]1C[C@H]2C(=O)NC3(CCC3)C(=O)N(C)[C@@H](C(CC)CC)C(=O)N(C)[C@H](C(=O)N(C)C)CC(=O)N(C)[C@@H](CC(C)C)C(=O)N[C@@H]([C@@H](C)CC)C(=O)N(C)CC(=O)N(C)[C@H]3C/C=C\CCN(C3=O)[C@@H](CC3CCC(F)(F)CC3)C(=O)N(C)CC(=O)N[C@@H](CCc3cc(F)c(C(F)(F)F)c(F)c3)C(=O)N2C1 [PP1433]	0.46	AA (a compound having 20 or more is denoted as AA)	A (a compound having 10 or more and less than 20 is denoted as A)	44.4
CCO[C@@H]1C[C@H]2C(=O)NC3(CCC3)C(=O)N(C)[C@@H](C(CC)CC)C(=O)N(C)[C@H](C(=O)N3CCCC3)CC(=O)N(C)[C@@H](C)C(=O)N[C@@H]([C@@H](C)CC)C(=O)N(C)CC(=O)N(C)[C@H]3C/C=C\CCN(C3=O)[C@@H](CC3CCCCC3)C(=O)N(C)CC(=O)N[C@@H](CCc3cc(F)c(C(F)(F)F)c(F)c3)C(=O)N2C1 [PP1434]	0.69	A (a compound having 10 or more and less than 20 is denoted as A)	A (a compound having 10 or more and less than 20 is denoted as A)	112
CCO[C@@H]1C[C@H]2C(=O)NC3(CCCC3)C(=O)N(C)[C@@H](C(CC)CC)C(=O)N(C)[C@H](C(=O)N3CCCC3)CC(=O)N(C)[C@@H](C)C(=O)N[C@@H]([C@@H](C)CC)C(=O)N(C)CC(=O)N(C)[C@H]3C/C=C\CCN(C3=O)[C@@H](CC3CCCCC3)C(=O)N(C)CC(=O)N[C@@H](CCc3cc(F)c(C(F)(F)F)c(F)c3)C(=O)N2C1 [PP1435]	1.1	A (a compound having 10 or more and less than 20 is denoted as A)	A (a compound having 10 or more and less than 20 is denoted as A)	178
